Laboratory results: patent US20090281322A1, “THERAPEUTICALLY USEFUL SUBSTITUTED 1,7-DIPHENYL-1,2,3,5,6,7-HEXAHYDROPYRIDO[3,2,1-Ij]QUINOLINE COMPOUNDS” (ALLERGAN, INC., priority 2008, published 2009)

Biological target: S1P3 receptor (Homo sapiens, UniProt Q99500)
Test: in vitro activity in the S1P3 receptor
Assay type: cell-based
Conditions: for IC50: Activity potency nM
Experimental: The in vitro activity of these compounds in the S1P3 receptor was determined using the assay described in paragraph [0067] of United States Patent Application Publication No. 20070232682, which published on Oct. 4, 2007.

Sequence of S1P3 receptor (Q99500 whole entry): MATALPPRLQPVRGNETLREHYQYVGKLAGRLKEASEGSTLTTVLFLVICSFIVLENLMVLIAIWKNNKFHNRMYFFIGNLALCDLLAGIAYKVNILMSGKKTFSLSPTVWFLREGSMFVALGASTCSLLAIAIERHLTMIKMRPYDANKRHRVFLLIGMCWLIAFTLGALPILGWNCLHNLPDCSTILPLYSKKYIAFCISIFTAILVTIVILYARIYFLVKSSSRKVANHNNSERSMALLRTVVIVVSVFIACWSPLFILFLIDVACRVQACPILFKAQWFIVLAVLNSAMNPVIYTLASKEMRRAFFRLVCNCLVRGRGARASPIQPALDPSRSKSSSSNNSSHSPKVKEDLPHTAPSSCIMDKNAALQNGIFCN

| SMILES | IC50 | S1P3 % Inhibition |
| --- | --- | --- |
| CCOC(=O)Nc1cc2c3c(c1)C(c1cccc(F)c1)CCN3CCC2c1cccc(F)c1 (stereo not drawn) [compound 093, Ethyl 1,7-bis(3-fluorophenyl)-1,2,3,5,6,7-hexahydropyrido[3,2,1-ij]quinolin-9-ylcarbamate] | 48 nM |  |
| O=C(Nc1cc2c3c(c1)C(c1ccccc1)CCN3CCC2c1ccccc1)OCCCCCl (stereo not drawn) [compound 206, 4-chlorobutyl 1,7-diphenyl-1,2,3,5,6,7-hexahydropyrido[3,2,1-ij]quinolin-9-ylcarbamate] | 62 nM |  |
| CCCOC(=O)Nc1cc2c3c(c1)C(c1cccc(F)c1)CCN3CCC2c1cccc(F)c1 (stereo not drawn) [compound 094, Propyl 1,7-bis(3-fluorophenyl)-1,2,3,5,6,7-hexahydropyrido[3,2,1-ij]quinolin-9-ylcarbamate] | 234 nM |  |
| COC(=O)Nc1cc2c3c(c1)C(c1cccc(F)c1)CCN3CCC2c1cccc(F)c1 (stereo not drawn) [compound 779, Methyl 1,7-bis(3-fluorophenyl)-1,2,3,5,6,7-hexahydropyrido[3,2,1-ij]quinolin-9-ylcarbamate] | 23 nM |  |
| CCCCCCNC(=S)Nc1cc2c3c(c1)C(c1ccccc1)CCN3CCC2c1ccccc1 (stereo not drawn) [compound 256, 1-(1,7-diphenyl-1,2,3,5,6,7-hexahydropyrido[3,2,1-ij]quinolin-9-yl)-3-hexylthiourea] | 78 nM |  |
| O=C(Nc1cc2c3c(c1)C(c1ccccc1)CCN3CCC2c1ccccc1)OCc1ccccc1 (stereo not drawn) [compound 278, Benzyl 1,7-diphenyl-1,2,3,5,6,7-hexahydropyrido[3,2,1-ij]quinolin-9-ylcarbamate] | 66 nM |  |
| O=C(Nc1cc2c3c(c1)C(c1ccccc1)CCN3CCC2c1ccccc1)Oc1ccccc1 (stereo not drawn) [compound 277, Phenyl 1,7-diphenyl-1,2,3,5,6,7-hexahydropyrido[3,2,1-ij]quinolin-9-ylcarbamate] | 901 nM |  |
| CCCCOC(=O)Nc1cc2c3c(c1)C(c1cccc(F)c1)CCN3CCC2c1cccc(F)c1 (stereo not drawn) [compound 202, Butyl 1,7-bis(3-fluorophenyl)-1,2,3,5,6,7-hexahydropyrido[3,2,1-ij]quinolin-9-ylcarbamate] | 272 nM |  |
| CCCCCCNC(=O)Nc1cc2c3c(c1)C(c1ccccc1)CCN3CCC2c1ccccc1 (stereo not drawn) [compound 487, 1-(1,7-diphenyl-1,2,3,5,6,7-hexahydropyrido[3,2,1-ij]quinolin-9-yl)-3-hexylurea] | 301 nM |  |
| O=C(Nc1cc2c3c(c1)C(c1ccccc1)CCN3CCC2c1ccccc1)OCCCCl (stereo not drawn) [compound 205, 3-chloropropyl 1,7-diphenyl-1,2,3,5,6,7-hexahydropyrido[3,2,1-ij]quinolin-9-ylcarbamate] | 8 nM |  |
| O=C(NCCCl)Nc1cc2c3c(c1)C(c1ccccc1)CCN3CCC2c1ccccc1 (stereo not drawn) [compound 769, 1-(2-chloroethyl)-3-(1,7-diphenyl-1,2,3,5,6,7-hexahydropyrido[3,2,1-ij]quinolin-9-yl)urea] | 374 nM |  |
| O=C(Nc1cc2c3c(c1)C(c1ccccc1)CCN3CCC2c1ccccc1)N1CCOCC1 (stereo not drawn) [compound 983, N-(1,7-diphenyl-1,2,3,5,6,7-hexahydropyrido[3,2,1-ij]quinolin-9-yl)morpholine-4-carboxamide] | 130 nM |  |
| O=C(NCc1ccoc1)Nc1cc2c3c(c1)C(c1ccccc1)CCN3CCC2c1ccccc1 (stereo not drawn) [compound 258, 1-(1,7-diphenyl-1,2,3,5,6,7-hexahydropyrido[3,2,1-ij]quinolin-9-yl)-3-(furan-3-ylmethyl)urea] | 59 nM |  |
| C=CCCOC(=O)Nc1cc2c3c(c1)C(c1ccccc1)CCN3CCC2c1ccccc1 (stereo not drawn) [compound 354, But-3-enyl 1,7-diphenyl-1,2,3,5,6,7-hexahydropyrido[3,2,1-ij]quinolin-9-ylcarbamate] | 16 nM | 97% |

The next lines start with the values.

| IC50 | S1P3 % Inhibition | SMILES |
| --- | --- | --- |
| 38 nM |  | CC(C)(C)NC(=O)Nc1cc2c3c(c1)C(c1ccccc1)CCN3CCC2c1ccccc1 (stereo not drawn) [compound 148, 1-tert-butyl-3-(1,7-diphenyl-1,2,3,5,6,7-hexahydropyrido[3,2,1-ij]quinolin-9-yl)urea] |
| 40 nM |  | C#CCOC(=O)Nc1cc2c3c(c1)C(c1ccccc1)CCN3CCC2c1ccccc1 (stereo not drawn) [compound 352, Prop-2-ynyl 1,7-diphenyl-1,2,3,5,6,7-hexahydropyrido[3,2,1-ij]quinolin-9-ylcarbamate] |
| 77 nM |  | CCNC(=O)Nc1cc2c3c(c1)C(c1ccccc1)CCN3CCC2c1ccccc1 (stereo not drawn) [compound 484, 1-(1,7-diphenyl-1,2,3,5,6,7-hexahydropyrido[3,2,1-ij]quinolin-9-yl)-3-ethylurea] |
| 131 nM |  | CN(C)C(=O)Nc1cc2c3c(c1)C(c1ccccc1)CCN3CCC2c1ccccc1 (stereo not drawn) [compound 405, 3-(1,7-diphenyl-1,2,3,5,6,7-hexahydropyrido[3,2,1-ij]quinolin-9-yl)-1,1-dimethylurea] |
| 8.7 nM |  | CCCCOC(=O)Nc1cc2c3c(c1)C(c1ccccc1)CCN3CCC2c1ccccc1 (stereo not drawn) [compound 276, Butyl 1,7-diphenyl-1,2,3,5,6,7-hexahydropyrido[3,2,1-ij]quinolin-9-ylcarbamate] |
| 52 nM |  | CCCCNC(=O)Nc1cc2c3c(c1)C(c1ccccc1)CCN3CCC2c1ccccc1 (stereo not drawn) [compound 485, 1-Butyl-3-(1,7-diphenyl-1,2,3,5,6,7-hexahydropyrido[3,2,1-ij]quinolin-9-yl)urea] |
| 12.2 nM |  | CCCOC(=O)Nc1cc2c3c(c1)C(c1ccccc1)CCN3CCC2c1ccccc1 (stereo not drawn) [compound 275, Propyl 1,7-diphenyl-1,2,3,5,6,7-hexahydropyrido[3,2,1-ij]quinolin-9-ylcarbamate] |
| 64 nM |  | CC(C)COC(=O)Nc1cc2c3c(c1)C(c1ccccc1)CCN3CCC2c1ccccc1 (stereo not drawn) [compound 274, Isobutyl 1,7-diphenyl-1,2,3,5,6,7-hexahydropyrido[3,2,1-ij]quinolin-9-ylcarbamate] |
| 160 nM |  | C=CCNC(=O)Nc1cc2c3c(c1)C(c1ccccc1)CCN3CCC2c1ccccc1 (stereo not drawn) [compound 773, 1-allyl-3-(1,7-diphenyl-1,2,3,5,6,7-hexahydropyrido[3,2,1-ij]quinolin-9-yl)urea] |
| 13 nM | 98% | CC#CCOC(=O)Nc1cc2c3c(c1)C(c1ccccc1)CCN3CCC2c1ccccc1 (stereo not drawn) [compound 353, But-2-ynyl 1,7-diphenyl-1,2,3,5,6,7-hexahydropyrido[3,2,1-ij]quinolin-9-ylcarbamate] |
| 153 nM |  | CCCNC(=S)Nc1cc2c3c(c1)C(c1ccccc1)CCN3CCC2c1ccccc1 (stereo not drawn) [compound 255, 1-(1,7-diphenyl-1,2,3,5,6,7-hexahydropyrido[3,2,1-ij]quinolin-9-yl)-3-propylthiourea] |
| 56 nM |  | O=C(Nc1cc2c3c(c1)C(c1ccccc1)CCN3CCC2c1ccccc1)OCCF (stereo not drawn) [compound 095, 2-fluoroethyl 1,7-diphenyl-1,2,3,5,6,7-hexahydropyrido[3,2,1-ij]quinolin-9-ylcarbamate] |
| 8.3 nM |  | COC(=O)Nc1cc2c3c(c1)C(c1ccccc1)CCN3CCC2c1ccccc1 (stereo not drawn) [compound 272, methyl 1,7-diphenyl-1,2,3,5,6,7-hexahydropyrido[3,2,1-ij]quinolin-9-ylcarbamate] |
| 63 nM |  | CCOC(=O)Nc1cc2c3c(c1)C(c1ccccc1)CCN3CCC2c1ccccc1 (stereo not drawn) [compound 273, Ethyl 1,7-diphenyl-1,2,3,5,6,7-hexahydropyrido[3,2,1-ij]quinolin-9-ylcarbamate] |
